In patent US5057495A, “Atrial hypotensive peptide” (Queen's University at Kingston, priority 1988, dated 1991):
Entries after “also recorded” stand apart in the source; their conditions may differ. Bridge positions count the residues as written; N and C are the ends. Peptide text beside a SMILES is read from it.

B1: pro-ANP: precursor of ANP, tested for cross reactivity with the antiserum (protein, UniProt P01161 25-152, looked up)
pro-form: NPVYSAVSNTDLMDFKNLLDHLEEKMPVEDEVMPPQALSEQTDEAGAALSSLSEVPPWTGEVNPSQRDGGALGRGPWDPSDRSALLKSKLRALLAGPRSLRRSSCFGGRIDRIGAQSGLGCNSFRYRR
modifications: pro-form

How the values were obtained:
[1] = system: assay rats anesthetized with sodium pentobarbital; assay: I.V. bolus injection into anesthetized bioassay rats: cardiovascular and renal responses; type: in vivo, rat; details: 3 nmol bolus injection
Procedure: Experiments were performed using male Sprague-Dawley rats, ranging in weight from 270-362 g. The rats were anesthetized by an intraperitional injection of sodium pentobarbital (70 mg.kg-1; MTC Pharmaceuticals, Hamilton, Ont.). Additional small amounts of anesthetic were administered as required in the course of the experiment. Body temperature was maintained by a heating lamp and rectal temperature monitored by a rectal probe. After installing a tracheal cannula, a femoral vein was cannulated and a priming infusion of saline (0.9% NaCl) was administered over a 20 min period (1.1 ml); this was followed by a maintenance saline infusion of 1.2 ml.h-1. The femoral artery was then cannulated for blood pressure measurement (Statham pressure transducer, model P23Db). A catheter was also advanced via the right external jugular vein towards the right heart for bolus injections of vehicle, ANF or the atrial peptide of the present invention (AHP). After tying off the penis, the bladder was cannulated for urine collection. […] The EKG was recorded for determination of heart rate.
Urine was collected in preweighed vials and volume calculated by weighing. […]
Zero time was established by 40-60 mins from the beginning the priming saline infusion. […] Cardiovascular measurements were analyzed at 5 min intervals during control and at 1, 5, 10, 15 and 20 mins following administration of injectate. […]

[2] = system: antiserum to iso-rANP(1-20) (P2A); assay: Double immunodiffusion / cross reactivity of antiserum raised against P2A; type: binding, rabbit

Molecule	diuretic, natriuretic, hypotensive and bradycardic response of ring peptides (FIG. 5) [1]	reaction with antiserum against P2A (precipitin lines / cross reactivity) [2]
CC[C@H](C)[C@@H]1NC(=O)[C@H](CCCNC(=N)N)NC(=O)[C@H](CC(=O)O)NC(=O)[C@H]([C@@H](C)CC)NC(=O)[C@H](CCCCN)NC(=O)[C@H](CCC(N)=O)NC(=O)CNC(=O)[C@H](Cc2ccccc2)NC(=O)[C@@H](N)CSSC[C@@H](C(=O)O)NC(=O)CNC(=O)[C@H](CC(C)C)NC(=O)[C@H](CCCNC(=N)N)NC(=O)[C@H](CO)NC(=O)[C@H](C(C)C)NC(=O)[C@H](C)NC(=O)CNC1=O [Iso-rANP(23-39)] (H-CFGQKIDRIGAVSRLGC-OH; disulfide 1-17)	significant diuretic, natriuretic, hypotensive and bradycardin response	–
rANP(23-39): ring portion of rANP [reference compound]	substantially biologically inactive	–
B1	–	No cross reactivity; also recorded: did not cross-react
